Assays:
hMC1-R = biological target: T1, hMC1-R (Homo sapiens, UniProt Q01726); test: Competitive inhibition binding assay using [I125]-NDP-α-MSH, HEK-293 membranes, recombinant hMC1-R; details: human recombinant MC1-R
T1 construct: expressed in transfected cells; host or cells: HEK-293
Experimental: (§1) A competitive inhibition binding assay was performed using membrane homogenates prepared from HEK-293 cells that express recombinant hMC4-R, hMC3-R, or hMC5-R, and from B-16 mouse melanoma cells (containing endogenous MC1-R). In some instances, HEK-293 cells that express recombinant hMC1-R were employed. In the examples that follow, all MC3-R, MC4-R and MC5-R values are for human recombinant receptors. MC1-R values are for B-16 mouse melanoma cells, unless the heading is “hMC1-R”, in which case the value is for human recombinant MC1-R. Assays were performed in 96 well GF/B Millipore multiscreen filtration plates (MAFB NOB10) pre-coated with 0.5% bovine serum albumin (Fraction V). […] After incubation for 60 minutes at 37° C., the assay mixture was filtered and the membranes washed three times with ice-cold buffer. Filters were dried and counted in a gamma counter for bound radioactivity. […] Maximal specific binding (100%) was defined as the difference in radioactivity (cpm) bound to cell membranes in the absence and presence of 1 μM NDP-α-MSH. […] Each assay was conducted in triplicate and the actual mean values are described, with results less than 0% reported as 0%. Ki values for test compounds were determined using Graph-Pad Prism® curve-fitting software.

MC5-R = biological target: T2, MC5-R (Homo sapiens, UniProt P33032); test: Competitive inhibition binding assay using [I125]-NDP-α-MSH, HEK-293 membranes, recombinant hMC5-R
T2 construct: expressed in transfected cells; host or cells: HEK-293
Experimental: as §1

MC3-R = biological target: T3, MC3-R (Homo sapiens, UniProt P41968); test: Competitive inhibition binding assay using [I125]-NDP-α-MSH, HEK-293 membranes, recombinant hMC3-R
T3 construct: expressed in transfected cells; host or cells: HEK-293
Experimental: as §1

MC4-R [1] = biological target: T4, MC4-R (Homo sapiens, UniProt P32245); test: Competitive inhibition binding assay using [I125]-NDP-α-MSH, HEK-293 membranes, recombinant hMC4-R; design: expressed in transfected cells; host or cells: HEK-293
Experimental: as §1

[2] = Mouse model IN feeding studies (body weight); format: in vivo; details: 20 hours
Experimental: (§2) Food intake and body weight after IN and IP dosing. Changes in food intake and body weight were evaluated for selected compounds. Male C57BL/6 mice were obtained from Jackson labs (Bar Harbor, Me.). Animals were individually housed in conventional plexiglass hanging cages and maintained on a controlled 12 hour on/off light cycle. Water and pelleted (Harlan Teklad 2018 18% Protein Rodent Diet) food was provided ad libitum. The mice were dosed IP (by intraperitoneal injection) after a 24 hour fast or IN (by intranasal administration) with vehicle or selected compounds (0.1-3 mg/kg, and in some cases up to 10 mg/kg). All animals were dosed once a day (or up to four consecutive days) at the start of the “lights off” period. The changes in food intake for the 4 hour and 20 hour period after dosing relative to control animals administered vehicle were determined. Body weights were determine 4 hours prior to dosing and 20 hours after dosing, and the change in body weight relative to control animals administered vehicle were determined.

[3] = Mouse model IP feeding studies in fasted animals (food intake); format: in vivo; details: 3 mg/kg, 20 hours
Experimental: as §2

MC4-R [4] = biological target: T4, MC4-R; test: Assay for agonist activity: cAMP accumulation in HEK-293 cells that express MC4-R; format: cell-based; design: expressed in transfected cells; host or cells: HEK-293; details: HEK293; cell line that expresses MC4-R; relative to NDP-α-MSH; read-out: maximum effect observed, % of the maximum achieved with NDP-α-MSH (cAMP)
Experimental: Assay for agonist activity. Accumulation of intracellular cAMP was examined as a measure of the ability of the test compounds to elicit a functional response in HEK-293 cells that express MC4-R. Confluent HEK-293 cells that express recombinant hMC4-R were detached from culture plates by incubation in enzyme-free cell dissociation buffer. Dispersed cells were suspended in Earle's Balanced Salt Solution containing 10 mM HEPES (pH 7.5), 1 mM MgCl2, 1 mM glutamine, 0.5% albumin and 0.3 mM 3-isobutyl-1-methyl-xanthine (IBMX), a phosphodiesterase inhibitor. The cells were plated in 96-well plates at a density of 0.5×10^5 cells per well and pre-incubated for 30 minutes. Cells were exposed for 1 hour at 37° C. to test compounds dissolved in DMSO (final DMSO concentration of 1%) at a concentration range of 0.05-5000 nM in a total assay volume of 200 μL. NDP-α-MSH was used as the reference agonist. At the end of the incubation period, cells were disrupted by the addition of 50 μL of lysis buffer (cAMP EIA kit, Amersham) followed by vigorous pipetting. Levels of cAMP in the lysates were determined using a cAMP EIA kit (Amersham). Data analysis was performed by nonlinear regression analysis with Graph-Pad Prism® software. The maximum efficacies of the test compounds were compared to that achieved by the reference melanocortin agonist NDP-αMSH.

MC1-R = biological target: T5, MC1-R (Mus musculus, UniProt Q01727); test: Competitive inhibition binding assay using [I125]-NDP-α-MSH, B-16 mouse melanoma cell membranes; details: B-16 mouse melanoma cells
T5 construct: from B-16 mouse melanoma cells (containing endogenous MC1-R); endogenous in cells; host or cells: B-16 mouse melanoma cells (membrane homogenates)
Experimental: as §1

MC4-R [5] = biological target: T4, MC4-R; test: Competitive binding assay using [I125]-AgRP (83-132); design: expressed in transfected cells; details: hMC4-R membranes
Experimental: Competitive binding assay using [I^125]—AgRP (83-132). Competitive binding studies using [I^125]—AgRP (83-132) were carried out using membrane homogenates isolated from cells that express hMC4-R. The assays were performed in 96-well GF/B Millipore multiscreen filtration plates (MAFB NOB10) pre-coated with 0.5% bovine serum albumin (Fraction V). The assay mixture contained 25 mM HEPES buffer (pH 7.5) with 100 mM NaCl, 2 mM CaCl2, 2 mM MgCl2, 0.3 mM 1,10-phenanthroline, 0.5% bovine serum albumin, membrane homogenates, radioligand [I^125]—AgRP (83-132) (Perkin Elmer) and increasing concentrations of compounds in a total volume of 200 μL. Binding was measured at radioligand concentrations of 0.2 nM. After incubating for 1 hour at 37° C., the reaction mixture was filtered and washed with assay buffer containing 500 mM NaCl. The dried discs were punched out from the plate and counted on a gamma counter. […] Ki values for test compounds were determined using Graph-Pad Prism® curve-fitting software.

T5 sequence (Q01727 whole entry): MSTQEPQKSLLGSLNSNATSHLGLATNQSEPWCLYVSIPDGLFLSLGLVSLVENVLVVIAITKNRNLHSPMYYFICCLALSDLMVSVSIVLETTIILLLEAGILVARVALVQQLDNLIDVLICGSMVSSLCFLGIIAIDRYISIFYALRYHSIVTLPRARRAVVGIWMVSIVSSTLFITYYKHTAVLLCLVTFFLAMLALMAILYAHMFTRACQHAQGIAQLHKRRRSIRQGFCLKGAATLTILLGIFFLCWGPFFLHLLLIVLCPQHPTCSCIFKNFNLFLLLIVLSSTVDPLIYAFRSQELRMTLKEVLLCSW
T2 sequence (P33032 whole entry): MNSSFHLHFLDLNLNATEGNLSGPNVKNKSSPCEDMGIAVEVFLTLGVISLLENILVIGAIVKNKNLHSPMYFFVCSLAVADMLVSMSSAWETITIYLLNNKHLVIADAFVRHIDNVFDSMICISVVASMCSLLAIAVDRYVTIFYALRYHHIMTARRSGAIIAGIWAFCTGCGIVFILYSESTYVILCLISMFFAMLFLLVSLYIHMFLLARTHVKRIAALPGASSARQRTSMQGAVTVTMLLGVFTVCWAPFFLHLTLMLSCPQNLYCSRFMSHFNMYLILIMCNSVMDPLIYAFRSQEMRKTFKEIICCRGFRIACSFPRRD
T3 sequence (P41968 whole entry): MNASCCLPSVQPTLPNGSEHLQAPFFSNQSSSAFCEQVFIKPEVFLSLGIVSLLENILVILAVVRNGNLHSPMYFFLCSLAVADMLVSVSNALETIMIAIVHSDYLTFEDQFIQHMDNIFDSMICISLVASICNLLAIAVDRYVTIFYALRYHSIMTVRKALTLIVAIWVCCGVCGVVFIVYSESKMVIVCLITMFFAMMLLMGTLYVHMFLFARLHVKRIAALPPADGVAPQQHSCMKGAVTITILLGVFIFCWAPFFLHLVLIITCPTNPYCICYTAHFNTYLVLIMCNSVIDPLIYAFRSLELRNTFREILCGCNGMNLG
T4 sequence (P32245 whole entry): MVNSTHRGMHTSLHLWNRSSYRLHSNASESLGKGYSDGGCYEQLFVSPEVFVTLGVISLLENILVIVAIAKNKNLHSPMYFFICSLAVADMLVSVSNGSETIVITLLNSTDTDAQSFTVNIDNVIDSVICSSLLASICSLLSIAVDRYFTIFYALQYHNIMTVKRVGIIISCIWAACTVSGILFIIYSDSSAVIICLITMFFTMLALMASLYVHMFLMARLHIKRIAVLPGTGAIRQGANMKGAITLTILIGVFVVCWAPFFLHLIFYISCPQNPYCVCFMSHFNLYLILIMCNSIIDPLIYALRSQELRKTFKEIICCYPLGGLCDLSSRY
T1 sequence (Q01726 whole entry): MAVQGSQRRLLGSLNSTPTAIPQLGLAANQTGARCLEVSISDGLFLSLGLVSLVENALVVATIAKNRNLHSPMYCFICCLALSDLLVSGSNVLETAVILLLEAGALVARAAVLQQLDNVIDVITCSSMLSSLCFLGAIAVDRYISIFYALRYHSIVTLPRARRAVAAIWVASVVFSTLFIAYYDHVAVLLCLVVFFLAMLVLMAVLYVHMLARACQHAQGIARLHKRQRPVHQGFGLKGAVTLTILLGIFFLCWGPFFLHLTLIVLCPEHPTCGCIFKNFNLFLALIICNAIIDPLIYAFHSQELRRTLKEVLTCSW

| Structure (SMILES) | Ki (hMC1-R) | Ki (MC5-R) | Ki (MC3-R) | Ki (MC4-R [1]) | average decrease in body weight compared to control animals ([2]; 0.1 mg/kg) | average decrease in body weight compared to control animals ([2]; 0.3 mg/kg) | average decrease in body weight compared to control animals ([2]; 1 mg/kg) | average decrease in food intake compared to control animals [3] | Emax (MC4-R [4]) | Ki (MC1-R) | Ki (MC4-R [5]) | inhibition at 1 µM (MC5-R; 1 μM compound) | inhibition at 1 µM (MC3-R; 1 μM compound) | inhibition at 1 µM (MC1-R; 1 μM compound) | inhibition at 1 µM (MC4-R [1]; 1 μM compound) |
| --- | --- | --- | --- | --- | --- | --- | --- | --- | --- | --- | --- | --- | --- | --- | --- |
| CC(C)C[C@@H]1CN(C[C@H](N)Cc2ccc(Cl)cc2Cl)[C@@H](CCCNCCN)CN1C(=O)Cc1ccc2ccccc2c1 [Example 18, 1-{(2R,5S)-4-[(R)-2-Amino-3-(2,4-dichloro-phenyl)-propyl]-5-[3-(2-amino-ethylamino)-propyl]-2-isobutyl-piperazin-1-yl}-2-naphthalen-2-yl-ethanone] | 359 nM | 188 nM | 297 nM | 106 nM | 3% | 3.5% | 6.2% | 30% |  |  |  |  |  |  |  |
| CC(C)C[C@@H]1CN(C[C@H](N)Cc2ccc(Cl)cc2Cl)[C@@H](CCCCNCCN)CN1C(=O)Cc1ccc2ccccc2c1 [Example 2, 1-{(2R,5S)-4-[(R)-2-Amino-3-(2,4-dichloro-phenyl)-propyl]-5-[4-(2-amino-ethylamino)-butyl]-2-isobutyl-piperazin-1-yl}-2-naphthalen-2-yl-ethanone] |  | 143 nM | 190 nM | 23 nM | 2.5% | 3% | 4.7% | 28% | 16% | 558 nM | 72 nM |  |  |  |  |
| CC(C)C[C@@H]1CN(C(=O)[C@H](N)Cc2ccc(Cl)cc2Cl)[C@@H](CCCCNCCN)CN1C(=O)Cc1ccc2ccccc2c1 [Example 1, (R)-2-Amino-1-[(2S,5R)-2-[4-(2-amino-ethylamino)-butyl]-5-isobutyl-4-(2-naphthalen-2-yl-acetyl)-piperazin-1-yl]-3-(2,4-dichloro-phenyl)-propan-1-one] |  | 301 nM | 250 nM | 18 nM |  |  |  |  | 61% | 102 nM |  | 68% | 71% | 55% | 98% |

Source: US7968548B2, “Melanocortin receptor-specific piperazine compounds with diamine groups” (Palatin Technologies, Inc., priority 2005, dated 2011)
